Earlier results on 1 compound are cited in patent publication US20090209489A1, “Compositions for the treatment of diabetis, system PH disorders, high blood pressure, and a cancer marker system” (priority 2008, published 2009).

Structures are written as SMILES.

The test system of this data set is Group 5 viruses. Particulars: therapeutic doses.

`CC(=O)N[C@H]1[C@H]([C@H](O)[C@H](O)CO)OC(O)(C(=O)O)C[C@@H]1O` (stereo partly shown) [N-Acetyl-Neuraminic Acid]: the “effectiveness at killing Group 5 viruses relative to any other known medication” value is listed as “more than 1000 times”.
